What was measured:
Type in all cases: functional
P388 [1] = assay: Antitumor activity against P388 cell line at 0.01 umol/L by MTT method; settings: Mus musculus
SGC-7901 [2] = assay: Antitumor activity against SGC7901 cell line at 1 umol/L by SRB method; settings: Homo sapiens
P388 [3] = assay: Antitumor activity against P388 cell line at 1 umol/L by MTT method; settings: Mus musculus
SGC-7901 [4] = assay: Antitumor activity against SGC7901 cell line at 0.1 umol/L by SRB method; settings: Homo sapiens
P388 [5] = assay: Antitumor activity against P388 cell line at 0.1 umol/L by MTT method; settings: Mus musculus
SGC-7901 [6] = assay: Antitumor activity against SGC7901 cell line at 10 umol/L by SRB method; settings: Homo sapiens
P388 [7] = assay: Antitumor activity against P388 cell line at 10 umol/L by MTT method; settings: Mus musculus
SGC-7901 [8] = assay: Antitumor activity against SGC7901 cell line at 0.01 umol/L by SRB method; settings: Homo sapiens
SGC-7901 [9] = assay: Antitumor activity against SGC7901 cell line at 100 umol/L by SRB method; settings: Homo sapiens
P388 [10] = assay: Antitumor activity against P388 cell line at 100 umol/L by MTT method; settings: Mus musculus
A549 [11] = assay: Antitumor activity against A549 cell line at 0.1 umol/L by SRB method; settings: Homo sapiens
A549 [12] = assay: Antitumor activity against A549 cell line at 10 umol/L by SRB method; settings: Homo sapiens
A549 [13] = assay: Antitumor activity against A549 cell line at 1 umol/L by SRB method; settings: Homo sapiens

SMILES: C/C(=N/N=C(\S)Nc1cccc(Cl)c1)c1cccs1
- inhibition at 0.01 µM (P388 [1]): 0%
- inhibition at 1 µM (SGC-7901 [2]): 0%
- inhibition at 1 µM (P388 [3]): 3.7%
- inhibition at 0.1 µM (SGC-7901 [4]): 0%
- inhibition at 0.1 µM (P388 [5]): 8.3%
- inhibition at 10 µM (SGC-7901 [6]): 39.7%
- inhibition at 10 µM (P388 [7]): 6.5%
- inhibition at 0.01 µM (SGC-7901 [8]): 0%
- inhibition at 100 µM (SGC-7901 [9]): 86.8%
- inhibition at 100 µM (P388 [10]): 51%

SMILES: CCn1cc(C(=O)O)c(=O)c2cc(F)c(N3CCN(/C(S)=N/N=C\c4ccccc4)CC3)cc21
- inhibition at 0.1 µM (A549 [11]): 0%
- inhibition at 10 µM (A549 [12]): 4.1%
- inhibition at 1 µM (P388 [3]): 4.6%
- inhibition at 0.1 µM (P388 [5]): 0%
- inhibition at 10 µM (P388 [7]): 68.8%
- inhibition at 1 µM (A549 [13]): 0.8%

SMILES: C/C(=N/N=C(\S)N1CCN(c2ccccn2)CC1)c1ccco1
- inhibition at 0.1 µM (A549 [11]): 0%
- inhibition at 10 µM (A549 [12]): 72.3%
- inhibition at 1 µM (P388 [3]): 50%
- inhibition at 0.1 µM (P388 [5]): 37.9%
- inhibition at 10 µM (P388 [7]): 77.3%
- inhibition at 1 µM (A549 [13]): 0%

SMILES: C/C(=N/N=C(\S)Nc1cc(Cl)cc(Cl)c1)c1cccs1
- inhibition at 0.01 µM (P388 [1]): 0%
- inhibition at 1 µM (SGC-7901 [2]): 0%
- inhibition at 1 µM (P388 [3]): 7%
- inhibition at 0.1 µM (SGC-7901 [4]): 0%
- inhibition at 0.1 µM (P388 [5]): 17.6%
- inhibition at 10 µM (SGC-7901 [6]): 27.9%
- inhibition at 10 µM (P388 [7]): 20.9%
- inhibition at 0.01 µM (SGC-7901 [8]): 0%
- inhibition at 100 µM (SGC-7901 [9]): 72.9%
- inhibition at 100 µM (P388 [10]): 90.1%

SMILES: COc1ccc(/C(C)=N\N=C(/S)N2CCN(c3ccccn3)CC2)cc1
- inhibition at 0.1 µM (A549 [11]): 3.3%
- inhibition at 10 µM (A549 [12]): 0.8%
- inhibition at 1 µM (P388 [3]): 3.7%
- inhibition at 0.1 µM (P388 [5]): 2.8%
- inhibition at 10 µM (P388 [7]): 7.3%
- inhibition at 1 µM (A549 [13]): 0%

SMILES: C/C(=N/N=C(\S)N1CCN(c2ccccn2)CC1)c1ccc(O)cc1
- inhibition at 0.1 µM (A549 [11]): 0%
- inhibition at 10 µM (A549 [12]): 0%
- inhibition at 1 µM (P388 [3]): 25.8%
- inhibition at 0.1 µM (P388 [5]): 28.8%
- inhibition at 10 µM (P388 [7]): 53%
- inhibition at 1 µM (A549 [13]): 0%

SMILES: C/C(=N/N=C(\S)N1CCN(C2CCCCCC2)CC1)c1ccccn1
- inhibition at 0.1 µM (A549 [11]): 0%
- inhibition at 10 µM (A549 [12]): 40%
- inhibition at 1 µM (P388 [3]): 41.6%
- inhibition at 0.1 µM (P388 [5]): 39.8%
- inhibition at 10 µM (P388 [7]): 96.5%
- inhibition at 1 µM (A549 [13]): 17.8%

SMILES: C/C(=N/N=C(\S)Nc1cccc2ccccc12)c1cccs1
- inhibition at 0.01 µM (P388 [1]): 0%
- inhibition at 1 µM (SGC-7901 [2]): 13.5%
- inhibition at 1 µM (P388 [3]): 7.2%
- inhibition at 0.1 µM (SGC-7901 [4]): 16.5%
- inhibition at 0.1 µM (P388 [5]): 0.9%
- inhibition at 10 µM (SGC-7901 [6]): 24.3%
- inhibition at 10 µM (P388 [7]): 4.3%
- inhibition at 0.01 µM (SGC-7901 [8]): 20%
- inhibition at 100 µM (SGC-7901 [9]): 55.9%
- inhibition at 100 µM (P388 [10]): 30.3%

SMILES: CCn1cc(C(=O)O)c(=O)c2cc(F)c(N3CCN(/C(S)=N/N=C(/C)c4ccccn4)CC3)cc21
- inhibition at 0.1 µM (A549 [11]): 0%
- inhibition at 10 µM (A549 [12]): 7.4%
- inhibition at 1 µM (P388 [3]): 4.6%
- inhibition at 0.1 µM (P388 [5]): 0%
- inhibition at 10 µM (P388 [7]): 26.6%
- inhibition at 1 µM (A549 [13]): 16.4%

SMILES: S=C(N/N=C\c1ccccc1)N1CCN(c2ccccn2)CC1
- inhibition at 0.1 µM (A549 [11]): 0.8%
- inhibition at 10 µM (A549 [12]): 0%
- inhibition at 1 µM (P388 [3]): 4.6%
- inhibition at 0.1 µM (P388 [5]): 3.7%
- inhibition at 10 µM (P388 [7]): 7.3%
- inhibition at 1 µM (A549 [13]): 16.4%

SMILES: C/C(=N/N=C(\S)N1CCN(c2ccccn2)CC1)c1cccs1
- inhibition at 0.01 µM (P388 [1]): 0%
- inhibition at 1 µM (SGC-7901 [2]): 7.2%
- inhibition at 1 µM (P388 [3]): 15%
- inhibition at 0.1 µM (SGC-7901 [4]): 1.6%
- inhibition at 0.1 µM (P388 [5]): 0%
- inhibition at 10 µM (SGC-7901 [6]): 94.9%
- inhibition at 10 µM (P388 [7]): 0%
- inhibition at 0.01 µM (SGC-7901 [8]): 12.8%
- inhibition at 100 µM (SGC-7901 [9]): 96.4%
- inhibition at 100 µM (P388 [10]): 100%

SMILES: C/C(=N/N=C(\S)N1CCN(c2ccccn2)CC1)c1ccc(C)cc1
- inhibition at 0.1 µM (A549 [11]): 0%
- inhibition at 10 µM (A549 [12]): 0%
- inhibition at 1 µM (P388 [3]): 21.2%
- inhibition at 0.1 µM (P388 [5]): 28.8%
- inhibition at 10 µM (P388 [7]): 25.8%
- inhibition at 1 µM (A549 [13]): 0%

SMILES: C/C(=N/N=C(\S)Nc1ccccc1)c1cccs1
- inhibition at 0.01 µM (P388 [1]): 8.5%
- inhibition at 1 µM (SGC-7901 [2]): 0%
- inhibition at 1 µM (P388 [3]): 1.6%
- inhibition at 0.1 µM (SGC-7901 [4]): 0%
- inhibition at 0.1 µM (P388 [5]): 6.2%
- inhibition at 10 µM (SGC-7901 [6]): 0%
- inhibition at 10 µM (P388 [7]): 1.2%
- inhibition at 0.01 µM (SGC-7901 [8]): 0%
- inhibition at 100 µM (SGC-7901 [9]): 39.2%
- inhibition at 100 µM (P388 [10]): 48%
